Measurements reported in ChEMBL document CHEMBL4393680, “Design, synthesis and biological evaluation of novel thioquinazolinone-based 2-aminobenzamide derivatives as potent histone deacetylase (HDAC) inhibitors” (Eur J Med Chem, 2019).
Blank lines part the entries; values can stand above or below the molecule they belong to.

Assays:
SMMC-7721 [1] = assay: Cell cycle arrest in human SMMC7721 cells assessed as accumulation at G0/G1 phase at 0.25 uM incubated for 48 hrs by propidium iodide staining based flow cytometry (Rvb=77%); format: functional
HeLa [2] = assay: Antiproliferative activity against human HeLa cells assessed as reduction in cell growth incubated for 72 hrs by CCK-8 assay; format: functional, cell-based
SMMC-7721 [3] = assay: Induction of apoptosis in human SMMC7721 cells assessed as early apoptotic cells at 0.25 uM incubated for 48 hrs by Annexin-V-FITC/propidium iodide staining based flow cytometry (Rvb=2.88%); format: functional
SMMC-7721 [4] = assay: Induction of apoptosis in human SMMC7721 cells assessed as late apoptotic cells at 1 uM incubated for 48 hrs by Annexin-V-FITC/propidium iodide staining based flow cytometry (Rvb=1.73%); format: functional
SMMC-7721 [5] = assay: Cell cycle arrest in human SMMC7721 cells assessed as accumulation at G2/M phase at 4 uM incubated for 48 hrs by propidium iodide staining based flow cytometry (Rvb=16.17%); format: functional
SMMC-7721 [6] = assay: Induction of apoptosis in human SMMC7721 cells assessed as early apoptotic cells at 1 uM incubated for 48 hrs by Annexin-V-FITC/propidium iodide staining based flow cytometry (Rvb=2.88%); format: functional
SMMC-7721 [7] = assay: Induction of apoptosis in human SMMC7721 cells assessed as late apoptotic cells at 4 uM incubated for 48 hrs by Annexin-V-FITC/propidium iodide staining based flow cytometry (Rvb=1.73%); format: functional
HCT-116 [8] = assay: Antiproliferative activity against human HCT116 cells assessed as reduction in cell growth at 2 uM incubated for 72 hrs by CCK-8 assay relative to control; format: functional; conditions: HCT-116, 72 h
HCT-116 [9] = assay: Antiproliferative activity against human HCT116 cells assessed as reduction in cell growth at 8 uM incubated for 72 hrs by CCK-8 assay relative to control; format: functional; conditions: HCT-116, 72 h
SMMC-7721 [10] = assay: Antiproliferative activity against human SMMC7721 cells assessed as reduction in cell growth at 2 uM incubated for 72 hrs by CCK-8 assay relative to control; format: functional; conditions: SMMC-7721, 72 h
A-375 [11] = assay: Antiproliferative activity against human A375 cells assessed as reduction in cell growth incubated for 72 hrs by CCK-8 assay; format: functional, cell-based; conditions: A-375, 72 h
HeLa [12] = assay: Antiproliferative activity against human HeLa cells assessed as reduction in cell growth at 8 uM incubated for 72 hrs by CCK-8 assay relative to control; format: functional
SMMC-7721 [13] = assay: Induction of apoptosis in human SMMC7721 cells assessed as late apoptotic cells at 0.25 uM incubated for 48 hrs by Annexin-V-FITC/propidium iodide staining based flow cytometry (Rvb=1.73%); format: functional
SMMC-7721 [14] = assay: Cell cycle arrest in human SMMC7721 cells assessed as accumulation at G0/G1 phase at 4 uM incubated for 48 hrs by propidium iodide staining based flow cytometry (Rvb=77%); format: functional
SMMC-7721 [15] = assay: Induction of apoptosis in human SMMC7721 cells assessed as viable cells at 4 uM incubated for 48 hrs by Annexin-V-FITC/propidium iodide staining based flow cytometry (Rvb=93.5%); format: functional; conditions: SMMC-7721, 48 h, read-out: Activity
SMMC-7721 [16] = assay: Induction of apoptosis in human SMMC7721 cells assessed as necrotic cells at 0.25 uM incubated for 48 hrs by Annexin-V-FITC/propidium iodide staining based flow cytometry (Rvb=1.88%); format: functional
SMMC-7721 [17] = assay: Antiproliferative activity against human SMMC7721 cells assessed as reduction in cell growth at 8 uM incubated for 72 hrs by CCK-8 assay relative to control; format: functional; conditions: SMMC-7721, 72 h
SMMC-7721 [18] = assay: Cell cycle arrest in human SMMC7721 cells assessed as accumulation at S phase at 1 uM incubated for 48 hrs by propidium iodide staining based flow cytometry (Rvb=6.83%); format: functional
A-375 [19] = assay: Antiproliferative activity against human A375 cells assessed as reduction in cell growth at 2 uM incubated for 72 hrs by CCK-8 assay relative to control; format: functional; conditions: A-375, 72 h
A549 [20] = assay: Antiproliferative activity against human A549 cells assessed as reduction in cell growth at 8 uM incubated for 72 hrs by CCK-8 assay relative to control; format: functional; conditions: A549, 72 h
A549 [21] = assay: Antiproliferative activity against human A549 cells assessed as reduction in cell growth at 2 uM incubated for 72 hrs by CCK-8 assay relative to control; format: functional; conditions: A549, 72 h
SMMC-7721 [22] = assay: Cell cycle arrest in human SMMC7721 cells assessed as accumulation at G0/G1 phase at 1 uM incubated for 48 hrs by propidium iodide staining based flow cytometry (Rvb=77%); format: functional
Histone deacetylase 2 = Histone deacetylase 2 (Homo sapiens, UniProt Q92769); assay: Inhibition of human recombinant His-tagged HDAC2 ([…]) expressed in baculovirus infected insect cells using FLUOR DE LYS Green as substrate preincubated for 10 mins followed by substrate addition and measured after 30 mins by fluorescence method
SMMC-7721 [23] = assay: Cell cycle arrest in human SMMC7721 cells assessed as accumulation at G2/M phase at 0.25 uM incubated for 48 hrs by propidium iodide staining based flow cytometry (Rvb=16.17%); format: functional
SMMC-7721 [24] = assay: Cell cycle arrest in human SMMC7721 cells assessed as accumulation at S phase at 0.25 uM incubated for 48 hrs by propidium iodide staining based flow cytometry (Rvb=6.83%); format: functional
A-375 [25] = assay: Antiproliferative activity against human A375 cells assessed as reduction in cell growth at 8 uM incubated for 72 hrs by CCK-8 assay relative to control; format: functional; conditions: A-375, 72 h
SMMC-7721 [26] = assay: Induction of apoptosis in human SMMC7721 cells assessed as early apoptotic cells at 4 uM incubated for 48 hrs by Annexin-V-FITC/propidium iodide staining based flow cytometry (Rvb=2.88%); format: functional
SMMC-7721 [27] = assay: Cell cycle arrest in human SMMC7721 cells assessed as accumulation at S phase at 4 uM incubated for 48 hrs by propidium iodide staining based flow cytometry (Rvb=6.83%); format: functional
SMMC-7721 [28] = assay: Induction of apoptosis in human SMMC7721 cells assessed as viable cells at 1 uM incubated for 48 hrs by Annexin-V-FITC/propidium iodide staining based flow cytometry (Rvb=93.5%); format: functional; conditions: SMMC-7721, 48 h, read-out: Activity
SMMC-7721 [29] = assay: Induction of apoptosis in human SMMC7721 cells assessed as necrotic cells at 1 uM incubated for 48 hrs by Annexin-V-FITC/propidium iodide staining based flow cytometry (Rvb=1.88%); format: functional
SMMC-7721 [30] = assay: Induction of apoptosis in human SMMC7721 cells assessed as viable cells at 0.25 uM incubated for 48 hrs by Annexin-V-FITC/propidium iodide staining based flow cytometry (Rvb=93.5%); format: functional; conditions: SMMC-7721, 48 h, read-out: Activity
SMMC-7721 [31] = assay: Antiproliferative activity against human SMMC7721 cells assessed as reduction in cell growth incubated for 72 hrs by CCK-8 assay; format: functional, cell-based; conditions: SMMC-7721, 72 h
HeLa [32] = assay: Antiproliferative activity against human HeLa cells assessed as reduction in cell growth at 2 uM incubated for 72 hrs by CCK-8 assay relative to control; format: functional
SMMC-7721 [33] = assay: Cell cycle arrest in human SMMC7721 cells assessed as accumulation at G2/M phase at 1 uM incubated for 48 hrs by propidium iodide staining based flow cytometry (Rvb=16.17%); format: functional
SMMC-7721 [34] = assay: Induction of apoptosis in human SMMC7721 cells assessed as necrotic cells at 4 uM incubated for 48 hrs by Annexin-V-FITC/propidium iodide staining based flow cytometry (Rvb=1.88%); format: functional
NIH3T3 = assay: Cytotoxicity against mouse NIH/3T3 cells assessed as reduction in cell viability after 48 hrs by CCK8 assay; format: cell-based; conditions: NIH3T3, 48 h
A549 [35] = assay: Antitumor activity against human A549 cells xenografted in BALB/C mouse assessed as tumor growth inhibition at 25 mg/kg, ip bid for 21 days measured at 3 days interval during compound dosing relative to control; format: functional; conditions: read-out: TGI

Sequence of Histone deacetylase 2 (Q92769 whole entry): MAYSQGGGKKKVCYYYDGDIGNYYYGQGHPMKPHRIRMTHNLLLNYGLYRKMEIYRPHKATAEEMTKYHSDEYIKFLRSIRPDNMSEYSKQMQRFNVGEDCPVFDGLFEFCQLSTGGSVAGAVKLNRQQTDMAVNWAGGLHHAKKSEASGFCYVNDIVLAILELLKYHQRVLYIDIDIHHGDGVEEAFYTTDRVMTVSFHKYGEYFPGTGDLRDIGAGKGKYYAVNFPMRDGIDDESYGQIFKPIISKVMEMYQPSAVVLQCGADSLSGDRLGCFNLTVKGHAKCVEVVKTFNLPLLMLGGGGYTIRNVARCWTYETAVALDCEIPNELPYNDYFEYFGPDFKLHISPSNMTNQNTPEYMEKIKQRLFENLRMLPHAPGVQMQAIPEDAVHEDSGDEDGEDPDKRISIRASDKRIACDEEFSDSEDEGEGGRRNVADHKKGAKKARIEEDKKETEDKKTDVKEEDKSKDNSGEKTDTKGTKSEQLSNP

IC50 (HeLa [2]): 12.6 µM
IC50 (A-375 [11]): 4.21 µM
IC50 (Histone deacetylase 2): 0.31 µM
IC50 (SMMC-7721 [31]): > 26 µM
Compound: Nc1ccc(F)cc1NC(=O)c1ccc(CNC(=O)/C=C/c2cccnc2)cc1
Activity (SMMC-7721 [1]): 77.96%
Activity (SMMC-7721 [3]): 5.74%
Activity (SMMC-7721 [4]): 7.88%
Activity (SMMC-7721 [5]): 9.69%
Activity (SMMC-7721 [6]): 5.09%
Activity (SMMC-7721 [7]): 19.1%
inhibition at 2 µM (HCT-116 [8]): 61.1%
inhibition at 8 µM (HCT-116 [9]): 87.4%
inhibition at 2 µM (SMMC-7721 [10]): 42.1%
inhibition at 8 µM (HeLa [12]): 52%
Activity (SMMC-7721 [13]): 3.88%
Activity (SMMC-7721 [14]): 76.78%
viability at 4 µM (SMMC-7721 [15]): 61.6%
Activity (SMMC-7721 [16]): 1.77%
inhibition at 8 µM (SMMC-7721 [17]): 58.9%
Activity (SMMC-7721 [18]): 13.16%
inhibition at 2 µM (A-375 [19]): 27.6%
inhibition at 8 µM (A549 [20]): 25.5%
inhibition at 2 µM (A549 [21]): 8%
Activity (SMMC-7721 [22]): 76.44%
Activity (SMMC-7721 [23]): 8.76%
Activity (SMMC-7721 [24]): 13.28%
inhibition at 8 µM (A-375 [25]): 63.6%
Activity (SMMC-7721 [26]): 15.2%
Activity (SMMC-7721 [27]): 13.53%
viability at 1 µM (SMMC-7721 [28]): 84.7%
Activity (SMMC-7721 [29]): 2.34%
viability at 0.25 µM (SMMC-7721 [30]): 88.6%
inhibition at 2 µM (HeLa [32]): 13.4%
Activity (SMMC-7721 [33]): 10.4%
Activity (SMMC-7721 [34]): 4.08%
IC50 (NIH3T3): 2.37 µM

IC50 (HeLa [2]): 18.8 µM
IC50 (SMMC-7721 [31]): > 32 µM
Compound: CC(=O)Nc1ccc(C(=O)Nc2ccccc2N)cc1 [TACEDINALINE]
Activity (SMMC-7721 [1]): 76.9%
Activity (SMMC-7721 [3]): 4.7%
Activity (SMMC-7721 [4]): 6.72%
Activity (SMMC-7721 [5]): 18.21%
Activity (SMMC-7721 [6]): 4.99%
Activity (SMMC-7721 [7]): 19.3%
inhibition at 2 µM (HCT-116 [8]): 13%
inhibition at 8 µM (HCT-116 [9]): 44%
inhibition at 2 µM (SMMC-7721 [10]): 23.5%
inhibition at 8 µM (HeLa [12]): 32.4%
Activity (SMMC-7721 [13]): 5.37%
Activity (SMMC-7721 [14]): 70.12%
viability at 4 µM (SMMC-7721 [15]): 65.7%
Activity (SMMC-7721 [16]): 1.55%
inhibition at 8 µM (SMMC-7721 [17]): 29.1%
Activity (SMMC-7721 [18]): 17.41%
inhibition at 2 µM (A-375 [19]): 13.4%
inhibition at 8 µM (A549 [20]): 29.1%
inhibition at 2 µM (A549 [21]): 23.5%
Activity (SMMC-7721 [22]): 75.86%
Activity (SMMC-7721 [23]): 7.73%
Activity (SMMC-7721 [24]): 15.37%
inhibition at 8 µM (A-375 [25]): 33.5%
Activity (SMMC-7721 [26]): 10.2%
Activity (SMMC-7721 [27]): 11.67%
viability at 1 µM (SMMC-7721 [28]): 86.5%
Activity (SMMC-7721 [29]): 1.74%
viability at 0.25 µM (SMMC-7721 [30]): 88.4%
inhibition in vivo at 25 mg/kg (A549 [35]): 46.8%
inhibition at 2 µM (HeLa [32]): 13.4%
Activity (SMMC-7721 [33]): 6.73%
Activity (SMMC-7721 [34]): 4.85%
IC50 (NIH3T3): 9.05 µM
